In ChEMBL document CHEMBL1255181, “Synthesis and in vitro evaluation of N-alkyl-7-methoxytacrine hydrochlorides as potential cholinesterase inhibitors in Alzheimer disease” (Bioorg Med Chem Lett, 2010):
pIC50: −log10 of the molar value. Activity calls are given as the source filed them. The rule behind the calls is not given here.

What was measured:
[1] = biological target: T1, Cholinesterase (Homo sapiens, UniProt P06276); experiment: Inhibition of human plasmatic BChE at 1 mM to 0.1 nM after 5 mins; format: cell-free; conditions: Plasma
T1 sequence (P06276 whole entry): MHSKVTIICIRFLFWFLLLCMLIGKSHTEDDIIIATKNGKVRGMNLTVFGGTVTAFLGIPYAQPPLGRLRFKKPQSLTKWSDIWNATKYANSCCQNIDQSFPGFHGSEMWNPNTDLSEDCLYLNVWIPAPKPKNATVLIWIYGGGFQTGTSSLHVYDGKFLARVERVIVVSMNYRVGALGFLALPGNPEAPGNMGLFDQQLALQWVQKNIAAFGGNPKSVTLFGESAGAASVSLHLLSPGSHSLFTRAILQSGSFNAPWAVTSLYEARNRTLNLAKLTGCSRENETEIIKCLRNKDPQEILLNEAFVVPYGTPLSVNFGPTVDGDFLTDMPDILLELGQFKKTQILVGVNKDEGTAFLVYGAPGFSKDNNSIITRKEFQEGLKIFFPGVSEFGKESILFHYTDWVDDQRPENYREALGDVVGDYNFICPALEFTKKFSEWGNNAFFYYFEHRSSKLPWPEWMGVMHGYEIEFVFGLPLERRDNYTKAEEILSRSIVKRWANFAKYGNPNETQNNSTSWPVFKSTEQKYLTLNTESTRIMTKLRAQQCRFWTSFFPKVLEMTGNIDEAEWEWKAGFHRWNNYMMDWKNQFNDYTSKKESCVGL

[2] = biological target: Acetylcholinesterase (Homo sapiens, UniProt P22303)
Acetylcholinesterase, sequence (P22303 whole entry): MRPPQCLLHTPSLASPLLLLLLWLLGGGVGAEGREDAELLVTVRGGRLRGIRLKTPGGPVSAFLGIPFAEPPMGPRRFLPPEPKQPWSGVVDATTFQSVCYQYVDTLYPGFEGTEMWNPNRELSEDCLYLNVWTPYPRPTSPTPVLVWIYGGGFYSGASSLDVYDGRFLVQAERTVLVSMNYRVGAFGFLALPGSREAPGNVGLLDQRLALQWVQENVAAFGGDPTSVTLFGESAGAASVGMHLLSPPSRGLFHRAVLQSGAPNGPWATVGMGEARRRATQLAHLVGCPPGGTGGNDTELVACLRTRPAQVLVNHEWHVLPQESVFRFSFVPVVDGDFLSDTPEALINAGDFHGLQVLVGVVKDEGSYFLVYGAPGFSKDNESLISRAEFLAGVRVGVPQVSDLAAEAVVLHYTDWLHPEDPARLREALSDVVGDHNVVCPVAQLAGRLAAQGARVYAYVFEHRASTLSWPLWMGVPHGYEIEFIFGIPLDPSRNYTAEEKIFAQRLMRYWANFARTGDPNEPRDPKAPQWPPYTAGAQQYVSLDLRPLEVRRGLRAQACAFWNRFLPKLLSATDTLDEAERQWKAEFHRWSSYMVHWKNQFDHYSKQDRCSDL
Description: Inhibition of human recombinant AChE after 5 mins

[3] = biological target: T1, Cholinesterase
Description: Inhibition of human plasmatic BChE after 5 mins

SMILES	inhibition [1]	pIC50 [2]	pIC50 [3]
CCCCCCCCCCCNc1c2c(nc3ccc(OC)cc13)CCCC2	inactive		
CCCNc1c2c(nc3ccc(OC)cc13)CCCC2		5.04	4.15
CCCCCCCNc1c2c(nc3ccc(OC)cc13)CCCC2		6.57	7.40
CCCCCCCCCNc1c2c(nc3ccc(OC)cc13)CCCC2		5.80	6.44
CCCCCCCCCCCCCCCNc1c2c(nc3ccc(OC)cc13)CCCC2	inactive		
CCCCCCCCCCNc1c2c(nc3ccc(OC)cc13)CCCC2	inactive		
CCCCCCCCCCCCCNc1c2c(nc3ccc(OC)cc13)CCCC2	inactive	4.00	
CCCCCCCCCCCCCCNc1c2c(nc3ccc(OC)cc13)CCCC2	inactive	4.34	
CCCCCCCCNc1c2c(nc3ccc(OC)cc13)CCCC2		6.44	6.92
CCCCCNc1c2c(nc3ccc(OC)cc13)CCCC2		5.17	4.80
CCNc1c2c(nc3ccc(OC)cc13)CCCC2		4.18	4.01
CCCCCCNc1c2c(nc3ccc(OC)cc13)CCCC2		7.00	6.00
CCCCCCCCCCCCNc1c2c(nc3ccc(OC)cc13)CCCC2	inactive	6.00	
CCCCNc1c2c(nc3ccc(OC)cc13)CCCC2		4.68	4.19
